ChEMBL document CHEMBL1139006, “Synthesis and in vitro antibiotic activity of 16-membered 9-O-arylalkyloxime macrolides” (2006)
In brackets after ≈: the same amount, converted by molar mass.

Experiments:
Format in all cases: functional
Streptococcus pneumoniae [1] = test: Antibacterial activity against Streptococcus pneumoniae ATCC 700671
Streptococcus pneumoniae [2] = test: Antibacterial activity against Streptococcus pneumoniae ATCC 6301
Streptococcus pneumoniae [3] = test: Antibacterial activity against macrolide resistant Streptococcus pneumoniae ATCC 700677
[4] = test system: Staphylococcus epidermidis; test: Antibacterial activity against Staphylococcus epidermidis ATCC 12228
Staphylococcus aureus [5] = test: Antibacterial activity against Staphylococcus aureus ATCC 6538p
Streptococcus pneumoniae [6] = test: Antibacterial activity against macrolide resistant Streptococcus pneumoniae ATCC 700676
Staphylococcus aureus [7] = test: Antibacterial activity against Staphylococcus aureus ATCC 29213
Enterococcus faecalis = test: Antibacterial activity against Enterococcus faecalis ATCC 51575
Streptococcus pneumoniae [8] = test: Antibacterial activity against macrolide resistant Streptococcus pneumoniae ATCC 700906
Staphylococcus aureus [9] = test: Antibacterial activity against macrolide resistant Staphylococcus aureus ATCC 141541
Staphylococcus aureus [10] = test: Antibacterial activity against macrolide resistant Staphylococcus aureus ATCC BAA-39
Streptococcus pneumoniae [11] = test: Antibacterial activity against Streptococcus pneumoniae ATCC 49619
Staphylococcus aureus [12] = test: Antibacterial activity against macrolide resistant Staphylococcus aureus ATCC BAA-44
Streptococcus pneumoniae [13] = test: Antibacterial activity against macrolide resistant Streptococcus pneumoniae ATCC 700905
Staphylococcus aureus [14] = test: Antibacterial activity against macrolide resistant Staphylococcus aureus ATCC 33591

SMILES	MIC (Streptococcus pneumoniae [1]) [µg/mL]	MIC (Streptococcus pneumoniae [2]) [µg/mL]	MIC (Streptococcus pneumoniae [3]) [µg/mL]	MIC [4] [µg/mL]	MIC (Staphylococcus aureus [5]) [µg/mL]	MIC (Streptococcus pneumoniae [6]) [µg/mL]	MIC (Staphylococcus aureus [7]) [µg/mL]	MIC (Enterococcus faecalis) [µg/mL]	MIC (Streptococcus pneumoniae [8]) [µg/mL]	MIC (Staphylococcus aureus [9]) [µg/mL]	MIC (Staphylococcus aureus [10]) [µg/mL]	MIC (Streptococcus pneumoniae [11]) [µg/mL]	MIC (Staphylococcus aureus [12]) [µg/mL]	MIC (Streptococcus pneumoniae [13]) [µg/mL]	MIC (Staphylococcus aureus [14]) [µg/mL]
CC[C@H]1OC(=O)C[C@@H](O)[C@H](C)[C@@H](O[C@@H]2O[C@H](C)[C@@H](O)[C@H](N(C)C)[C@@H]2O)[C@@H](CCN2CC(C)CC(C)C2)C[C@@H](C)C(=N\OCCCc2ccc3ncccc3c2)/C=C/C(C)=C/C1CO (stereo not given in full)	6.25 (≈ 7.11 µM)	6.25 (≈ 7.11 µM)	> 12.5	> 12.5	> 12.5	12.5 (≈ 14.2 µM)	> 12.5	> 12.5	> 12.5	> 12.5	> 12.5	6.25 (≈ 7.11 µM)	> 12.5	12.5 (≈ 14.2 µM)	> 12.5
CC[C@H]1OC(=O)C[C@@H](O)[C@H](C)[C@@H](O[C@@H]2O[C@H](C)[C@@H](O)[C@H](N(C)C)[C@H]2O)[C@@H](CC=O)C[C@@H](C)C(=N/OCc2ccccc2)/C=C/C(C)=C/C1CO (stereo not given in full)	0.2 (≈ 0.285 µM)	0.025 (≈ 0.0356 µM)	1.56 (≈ 2.22 µM)	0.78 (≈ 1.11 µM)	0.39 (≈ 0.555 µM)	0.025 (≈ 0.0356 µM)	1.56 (≈ 2.22 µM)	> 12.5	> 12.5	1.56 (≈ 2.22 µM)	> 12.5	0.2 (≈ 0.285 µM)	> 12.5	0.2 (≈ 0.285 µM)	> 12.5
CC[C@H]1OC(=O)C[C@@H](O)[C@H](C)[C@@H](O[C@@H]2O[C@H](C)[C@@H](O)[C@H](N(C)C)[C@@H]2O)[C@@H](CCN2CC(C)CC(C)C2)C[C@@H](C)C(=N\OCCOc2ccccc2)/C=C/C(C)=C/C1CO (stereo not given in full)	0.39 (≈ 0.47 µM)	0.2 (≈ 0.241 µM)	> 12.5	6.25 (≈ 7.53 µM)	0.78 (≈ 0.94 µM)	0.78 (≈ 0.94 µM)	6.25 (≈ 7.53 µM)	> 12.5	> 12.5	6.25 (≈ 7.53 µM)	> 12.5	0.39 (≈ 0.47 µM)	> 12.5	0.39 (≈ 0.47 µM)	> 12.5
CC[C@H]1OC(=O)C[C@@H](O)[C@H](C)[C@@H](O[C@@H]2O[C@H](C)[C@@H](O)[C@H](N(C)C)[C@H]2O)[C@@H](CC=O)C[C@@H](C)C(=N/OCC#Cc2cnc3ccccc3c2)/C=C/C(C)=C/C1CO (stereo not given in full)	0.025 (≈ 0.0321 µM)	0.025 (≈ 0.0321 µM)	> 12.5	0.098 (≈ 0.126 µM)	0.098 (≈ 0.126 µM)	0.025 (≈ 0.0321 µM)	0.39 (≈ 0.501 µM)	> 12.5	> 12.5	0.39 (≈ 0.501 µM)	> 12.5	0.025 (≈ 0.0321 µM)	> 12.5	0.049 (≈ 0.063 µM)	> 12.5
CC[C@H]1OC(=O)C[C@@H](O)[C@H](C)[C@@H](O[C@@H]2O[C@H](C)[C@@H](O)[C@H](N(C)C)[C@H]2O)[C@@H](CC=O)C[C@@H](C)C(=N/OCC(=O)N2CCN(c3ccccc3)CC2)/C=C/C(C)=C/C1CO (stereo not given in full)	0.025 (≈ 0.0307 µM)	0.025 (≈ 0.0307 µM)	6.25 (≈ 7.67 µM)	0.2 (≈ 0.245 µM)	0.78 (≈ 0.957 µM)	0.39 (≈ 0.479 µM)	1.56 (≈ 1.91 µM)	> 12.5	> 12.5	1.56 (≈ 1.91 µM)	> 12.5	0.01 (≈ 0.0123 µM)	> 12.5	0.2 (≈ 0.245 µM)	> 12.5
CC[C@H]1OC(=O)C[C@@H](O)[C@H](C)[C@@H](O[C@@H]2O[C@H](C)[C@@H](O)[C@H](N(C)C)[C@H]2O)[C@@H](CCN2C[C@H](C)C[C@H](C)C2)C[C@@H](C)C(=O)/C=C/C(C)=C/[C@@H]1CO[C@@H]1O[C@H](C)[C@@H](O)[C@@H](OC)[C@H]1OC [TILMICOSIN]	0.78 (≈ 0.897 µM)	0.39 (≈ 0.449 µM)	6.25 (≈ 7.19 µM)	0.098 (≈ 0.113 µM)	0.098 (≈ 0.113 µM)	0.78 (≈ 0.897 µM)	0.2 (≈ 0.23 µM)	> 12.5	> 12.5	0.39 (≈ 0.449 µM)	> 12.5	1.56 (≈ 1.79 µM)	> 12.5	1.56 (≈ 1.79 µM)	> 12.5
CC[C@H]1OC(=O)C[C@@H](O)[C@H](C)[C@@H](O[C@@H]2O[C@H](C)[C@@H](O)[C@H](N(C)C)[C@H]2O)[C@@H](CC=O)C[C@@H](C)C(=N\OCCOc2ccccc2)/C=C/C(C)=C/C1CO (stereo not given in full)	0.39 (≈ 0.532 µM)	0.098 (≈ 0.134 µM)	1.56 (≈ 2.13 µM)	1.56 (≈ 2.13 µM)	1.56 (≈ 2.13 µM)	0.2 (≈ 0.273 µM)	3.12 (≈ 4.26 µM)	> 12.5	> 12.5	3.12 (≈ 4.26 µM)	> 12.5	0.2 (≈ 0.273 µM)	> 12.5	0.78 (≈ 1.06 µM)	> 12.5
CC[C@H]1OC(=O)C[C@@H](O)[C@H](C)[C@@H](O[C@@H]2O[C@H](C)[C@@H](O)[C@H](N(C)C)[C@@H]2O)[C@@H](CCN2CC(C)CC(C)C2)C[C@@H](C)C(=N/O)/C=C/C(C)=C/C1CO (stereo not given in full)	1.56 (≈ 2.2 µM)	0.78 (≈ 1.1 µM)	> 12.5	> 12.5	3.12 (≈ 4.39 µM)	6.25 (≈ 8.8 µM)	12.5 (≈ 17.6 µM)	> 12.5	> 12.5	> 12.5	> 12.5	1.56 (≈ 2.2 µM)	> 12.5	6.25 (≈ 8.8 µM)	> 12.5
CC[C@H]1OC(=O)C[C@@H](O)[C@H](C)[C@@H](O[C@@H]2O[C@H](C)[C@@H](O)[C@H](N(C)C)[C@H]2O)[C@@H](CC=O)C[C@@H](C)C(=N/OCCOc2ccccc2)/C=C/C(C)=C/C1CO (stereo not given in full)	0.025 (≈ 0.0341 µM)	0.025 (≈ 0.0341 µM)	0.39 (≈ 0.532 µM)	0.2 (≈ 0.273 µM)	0.098 (≈ 0.134 µM)	0.025 (≈ 0.0341 µM)	0.2 (≈ 0.273 µM)	> 12.5	> 12.5	0.39 (≈ 0.532 µM)	> 12.5	0.01 (≈ 0.0136 µM)	> 12.5	0.025 (≈ 0.0341 µM)	> 12.5
